From the supplement of paper PMC10307832

Tests used:
Experiment in all cases: relative viability (nuclei count vs DMSO), 5 days (fraction); higher = more cells survive
[1] = compound: COC1=CC(c2cc3ccccc3[nH]2)=N/C1=C\c1[nH]c(C)cc1C [Obatoclax] + O=C(c1cc(Cc2n[nH]c(=O)c3ccccc23)ccc1F)N1CCN(C(=O)C2CC2)CC1 [Olaparib] (partner 8 µM)
How it was run: (§1)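 Lung cancer cell lines in 1536-well plates got either a single drug or a fixed anchor-drug dose together with five library-drug doses (not always all listed) in √10 steps, by pin tool, on the day after seeding. Nuclei were counted after 5 days, and relative viability is the treated-to-vehicle ratio of nuclei counts. Values are medians of duplicate plates.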

[2] = compound: CC(C)C[C@H](NC(=O)[C@H](Cc1ccccc1)NC(=O)c1cnccn1)B(O)O [Bortezomib] + C[C@]1(O)C[C@@H](c2nc(-c3ccc4ccc(-c5ccccc5)nc4c3)c3c(N)nccn32)C1 [Linsitinib] (partner 1 µM)
How it was run: as §1

[3] = compound: CC(C)C[C@H](NC(=O)[C@H](Cc1ccccc1)NC(=O)c1cnccn1)B(O)O [Bortezomib] + C[C@@H](Oc1cc(-c2cnn(C3CCNCC3)c2)cnc1N)c1c(Cl)ccc(F)c1Cl [Crizotinib] (partner 1 µM)
How it was run: as §1

[4] = compound: COC1=CC(c2cc3ccccc3[nH]2)=N/C1=C\c1[nH]c(C)cc1C [Obatoclax] + C[C@]1(O)C[C@@H](c2nc(-c3ccc4ccc(-c5ccccc5)nc4c3)c3c(N)nccn32)C1 [Linsitinib] (partner 1 µM)
How it was run: as §1

Work on SK-MES-1 yielded a relative viability ([1]; first compound 0.01 µM) of 0.641, a relative viability ([1]; first compound 0.03162 µM) of 0.655 and a relative viability ([1]; first compound 0.1 µM) of 0.495. It also gave a relative viability ([1]; first compound 0.3162 µM) of 0.172, a relative viability ([1]; first compound 1 µM) of 0.17 and a relative viability ([2]; first compound 0.0002 µM) of 1.08. The relative viability ([2]; first compound 0.000632 µM) was 1.06, the relative viability ([2]; first compound 0.002 µM) was 1.1 and the relative viability ([2]; first compound 0.006325 µM) was 0.54. For the same cell line, the relative viability ([2]; first compound 0.02 µM) was 0.189, the relative viability ([3]; first compound 0.0002 µM) was 0.967 and the relative viability ([3]; first compound 0.000632 µM) was 0.994. The relative viability ([3]; first compound 0.002 µM) was 0.935, the relative viability ([3]; first compound 0.006325 µM) was 0.261 and the relative viability ([3]; first compound 0.02 µM) was 0.161. The relative viability ([4]; first compound 0.01 µM) was 0.991, the relative viability ([4]; first compound 0.03162 µM) was 1.1 and the relative viability ([4]; first compound 0.1 µM) was 1.09. For the same cell line, the relative viability ([4]; first compound 0.3162 µM) was 0.98 and the relative viability ([4]; first compound 1 µM) was 0.687.
In the case of NCI-H2085, the relative viability ([1]; first compound 0.01 µM) was 0.726, the relative viability ([1]; first compound 0.03162 µM) was 0.784 and the relative viability ([1]; first compound 0.1 µM) was 0.747. The relative viability ([1]; first compound 0.3162 µM) was 0.816, the relative viability ([1]; first compound 1 µM) was 0.708 and the relative viability ([2]; first compound 0.0002 µM) was 0.901. For the same cell line, the relative viability ([2]; first compound 0.000632 µM) was 0.901, the relative viability ([2]; first compound 0.002 µM) was 0.726 and the relative viability ([2]; first compound 0.006325 µM) was 0.262. The relative viability ([2]; first compound 0.02 µM) was 0.145, the relative viability ([3]; first compound 0.0002 µM) was 0.814 and the relative viability ([3]; first compound 0.000632 µM) was 0.988. For the same cell line, the relative viability ([3]; first compound 0.002 µM) was 0.757, the relative viability ([3]; first compound 0.006325 µM) was 0.188 and the relative viability ([3]; first compound 0.02 µM) was 0.217. It also gave a relative viability ([4]; first compound 0.01 µM) of 0.969, a relative viability ([4]; first compound 0.03162 µM) of 0.85 and a relative viability ([4]; first compound 0.1 µM) of 0.856. For the same cell line, the relative viability ([4]; first compound 0.3162 µM) was 0.602 and the relative viability ([4]; first compound 1 µM) was 0.523.
NCI-H2087 gave a relative viability ([1]; first compound 0.01 µM) of 0.588, a relative viability ([1]; first compound 0.03162 µM) of 0.596 and a relative viability ([1]; first compound 0.1 µM) of 0.436. For the same cell line, the relative viability ([1]; first compound 0.3162 µM) was 0.451, the relative viability ([1]; first compound 1 µM) was 0.226 and the relative viability ([2]; first compound 0.0002 µM) was 0.944. It also gave a relative viability ([2]; first compound 0.000632 µM) of 1.15, a relative viability ([2]; first compound 0.002 µM) of 0.764 and a relative viability ([2]; first compound 0.006325 µM) of 0.11. It also gave a relative viability ([2]; first compound 0.02 µM) of 0.215, a relative viability ([3]; first compound 0.0002 µM) of 0.912 and a relative viability ([3]; first compound 0.000632 µM) of 0.911. It also gave a relative viability ([3]; first compound 0.002 µM) of 0.74, a relative viability ([3]; first compound 0.006325 µM) of 0.0857 and a relative viability ([3]; first compound 0.02 µM) of 0.072. For the same cell line, the relative viability ([4]; first compound 0.01 µM) was 0.949, the relative viability ([4]; first compound 0.03162 µM) was 0.773 and the relative viability ([4]; first compound 0.1 µM) was 0.748. The relative viability ([4]; first compound 0.3162 µM) was 0.429 and the relative viability ([4]; first compound 1 µM) was 0.264.
With HCC-366 the relative viability ([1]; first compound 0.01 µM) was 0.322, the relative viability ([1]; first compound 0.03162 µM) was 0.366 and the relative viability ([1]; first compound 0.1 µM) was 0.316. It also gave a relative viability ([1]; first compound 0.3162 µM) of 0.334, a relative viability ([1]; first compound 1 µM) of 0.272 and a relative viability ([2]; first compound 0.0002 µM) of 0.494. The relative viability ([2]; first compound 0.000632 µM) was 0.574, the relative viability ([2]; first compound 0.002 µM) was 0.677 and the relative viability ([2]; first compound 0.006325 µM) was 0.51. For the same cell line, the relative viability ([2]; first compound 0.02 µM) was 0.0152, the relative viability ([3]; first compound 0.0002 µM) was 0.522 and the relative viability ([3]; first compound 0.000632 µM) was 0.682. It also gave a relative viability ([3]; first compound 0.002 µM) of 0.598, a relative viability ([3]; first compound 0.006325 µM) of 0.275 and a relative viability ([3]; first compound 0.02 µM) of 0.0107. The relative viability ([4]; first compound 0.01 µM) was 0.597, the relative viability ([4]; first compound 0.03162 µM) was 0.675 and the relative viability ([4]; first compound 0.1 µM) was 0.64. The relative viability ([4]; first compound 0.3162 µM) was 0.454 and the relative viability ([4]; first compound 1 µM) was 0.427.
NCI-H2126 was tested, and the relative viability ([1]; first compound 0.01 µM) was 0.872, the relative viability ([1]; first compound 0.03162 µM) was 0.851 and the relative viability ([1]; first compound 0.1 µM) was 0.903. For the same cell line, the relative viability ([1]; first compound 0.3162 µM) was 0.865, the relative viability ([1]; first compound 1 µM) was 0.918 and the relative viability ([2]; first compound 0.0002 µM) was 0.74. It also gave a relative viability ([2]; first compound 0.000632 µM) of 0.711, a relative viability ([2]; first compound 0.002 µM) of 0.68 and a relative viability ([2]; first compound 0.006325 µM) of 0.738. For the same cell line, the relative viability ([2]; first compound 0.02 µM) was 0.374, the relative viability ([3]; first compound 0.0002 µM) was 0.991 and the relative viability ([3]; first compound 0.000632 µM) was 0.993. The relative viability ([3]; first compound 0.002 µM) was 1.08, the relative viability ([3]; first compound 0.006325 µM) was 0.957 and the relative viability ([3]; first compound 0.02 µM) was 0.195. It also gave a relative viability ([4]; first compound 0.01 µM) of 0.684, a relative viability ([4]; first compound 0.03162 µM) of 0.713 and a relative viability ([4]; first compound 0.1 µM) of 0.722. It also gave a relative viability ([4]; first compound 0.3162 µM) of 0.712 and a relative viability ([4]; first compound 1 µM) of 0.705.
SK-LU-1 showed a relative viability ([1]; first compound 0.01 µM) of 0.448, a relative viability ([1]; first compound 0.03162 µM) of 0.468 and a relative viability ([1]; first compound 0.1 µM) of 0.372. For the same cell line, the relative viability ([1]; first compound 0.3162 µM) was 0.447, the relative viability ([1]; first compound 1 µM) was 0.347 and the relative viability ([2]; first compound 0.0002 µM) was 0.986. It also gave a relative viability ([2]; first compound 0.000632 µM) of 1.04, a relative viability ([2]; first compound 0.002 µM) of 1.42 and a relative viability ([2]; first compound 0.006325 µM) of 0.174. It also gave a relative viability ([2]; first compound 0.02 µM) of 0.159, a relative viability ([3]; first compound 0.0002 µM) of 0.793 and a relative viability ([3]; first compound 0.000632 µM) of 0.912. It also gave a relative viability ([3]; first compound 0.002 µM) of 0.626, a relative viability ([3]; first compound 0.006325 µM) of 0.173 and a relative viability ([3]; first compound 0.02 µM) of 0.136. The relative viability ([4]; first compound 0.01 µM) was 1.18, the relative viability ([4]; first compound 0.03162 µM) was 1.17 and the relative viability ([4]; first compound 0.1 µM) was 0.834. For the same cell line, the relative viability ([4]; first compound 0.3162 µM) was 0.496 and the relative viability ([4]; first compound 1 µM) was 0.419.
Work on HCC-78 yielded a relative viability ([1]; first compound 0.01 µM) of 0.836, a relative viability ([1]; first compound 0.03162 µM) of 0.952 and a relative viability ([1]; first compound 0.1 µM) of 1.26. For the same cell line, the relative viability ([1]; first compound 0.3162 µM) was 0.668, the relative viability ([1]; first compound 1 µM) was 0.855 and the relative viability ([2]; first compound 0.0002 µM) was 0.509. It also gave a relative viability ([2]; first compound 0.000632 µM) of 0.394, a relative viability ([2]; first compound 0.002 µM) of 0.458 and a relative viability ([2]; first compound 0.006325 µM) of 0.128. It also gave a relative viability ([2]; first compound 0.02 µM) of 0.18, a relative viability ([3]; first compound 0.0002 µM) of 0.365 and a relative viability ([3]; first compound 0.000632 µM) of 0.328. It also gave a relative viability ([3]; first compound 0.002 µM) of 0.299, a relative viability ([3]; first compound 0.006325 µM) of 0.148 and a relative viability ([3]; first compound 0.02 µM) of 0.174. The relative viability ([4]; first compound 0.01 µM) was 0.448, the relative viability ([4]; first compound 0.03162 µM) was 0.52 and the relative viability ([4]; first compound 0.3162 µM) was 0.283. The relative viability ([4]; first compound 1 µM) was 0.304.
